Experimental findings from PubChem BioAssay AID330 (DTP/NCI, 2004) are described below.

Structures are written as SMILES. Where “and” joins values, the source holds several entries; their conditions need not be identical. Equal values may be shown once. Inconclusive results and toxic doses are left out.

This assay concerns P388 leukemia ip, CD2F1 mice, survival T/C. Nature of the assay: NCI In Vivo Anticancer Drug Screen. Data for tumor model P388 Leukemia (intraperitoneal) in CD2F1 (CDF1) mice. The note with it: endpoint: median survival time, higher = longer survival. The method, boiled down: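 Mice carrying the transplanted tumor received test compound or vehicle. Survival was recorded in each group, and the value is the treated-group measurement divided by that of the vehicle-treated control group.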

The mark [1] stands for this setting: dose: 50.0 mg/kg/injection, schedule: Q01DX009 (ip), vehicle: saline.
Setting [2] is: dose: 60.0 mg/kg/injection, schedule: Q01DX005 (ip), vehicle: saline with Tween-80.
[3] abbreviates: dose: 120.0 mg/kg/injection, schedule: Q01DX005 (ip), vehicle: saline with Tween-80.
Where [4] appears, read: dose: 240.0 mg/kg/injection, schedule: Q01DX005 (ip), vehicle: saline with Tween-80.
The mark [5] stands for this setting: dose: 50.0 mg/kg/injection, schedule: Q01DX009 (ip), vehicle: saline with Tween-80.
The mark [6] stands for this setting: dose: 100.0 mg/kg/injection, schedule: Q01DX009 (ip), vehicle: saline with Tween-80.
Where [7] appears, read: dose: 50.0 mg/kg/injection, schedule: Q01DX009 (ip), vehicle: Klucel (hydroxypropylcellulose) (HPC).
The mark [8] stands for this setting: dose: 100.0 mg/kg/injection, schedule: Q01DX009 (ip), vehicle: Klucel (hydroxypropylcellulose) (HPC).
Where [9] appears, read: dose: 200.0 mg/kg/injection, schedule: Q01DX009 (ip), vehicle: Klucel (hydroxypropylcellulose) (HPC).
The mark [10] stands for this setting: dose: 100.0 mg/kg/injection, schedule: Q04DX003 (ip), vehicle: saline with Tween-80.
The mark [11] stands for this setting: dose: 200.0 mg/kg/injection, schedule: Q04DX003 (ip), vehicle: saline with Tween-80.
[12] abbreviates: dose: 50.0 mg/kg/injection, schedule: Q01DX005 (ip), vehicle: saline.

With `C=CC(=O)NCCCCC(N)C(=O)O` (stereo unspecified), the T/C runs as follows: under setting [1], 100 % of control; (dose: 100.0 mg/kg/injection, schedule: Q01DX009 (ip), vehicle: saline) 100 % of control; (dose: 200.0 mg/kg/injection, schedule: Q01DX009 (ip), vehicle: saline) 97 % of control.
For `NC(CCC(N)C(=O)c1ccccc1)C(=O)c1ccccc1` (stereo unspecified), the T/C runs as follows: under setting [2], 98 % of control; under setting [3], 101 % of control; under setting [4], 93 % of control.
Turning to `C[C@H]1C(=O)OCN1C(=O)OCc1ccccc1`, the T/C is, setting by setting: under setting [2], 100 % of control; under setting [3], 100 % of control; under setting [4], 95 % of control.
For `Cc1ccccc1/C=C1/C(=O)C(c2ccccc2)=C1c1ccccc1`, the T/C runs as follows: (dose: 100.0 mg/kg/injection, schedule: Q01DX001 (ip), vehicle: Klucel (hydroxypropylcellulose) (HPC)) 105 % of control; (dose: 200.0 mg/kg/injection, schedule: Q01DX001 (ip), vehicle: Klucel (hydroxypropylcellulose) (HPC)) 106 % of control; (dose: 400.0 mg/kg/injection, schedule: Q01DX001 (ip), vehicle: Klucel (hydroxypropylcellulose) (HPC)) 100 % of control.
Consider `COC(=O)c1cc2c(cc1C(=O)OC)C(=O)c1ccccc1C2=O`, for which the T/C is, setting by setting: under setting [2], 100 % of control; under setting [3], 101 % of control; under setting [4], 92 % of control.
With `COc1ccc(C2CC(=O)N(c3cccc(C)n3)C(=O)C2)cc1`, the T/C is, setting by setting: (dose: 100.0 mg/kg/injection, schedule: Q04DX003 (ip), vehicle: saline) 100 % of control; (dose: 200.0 mg/kg/injection, schedule: Q04DX003 (ip), vehicle: saline) 100 % of control; (dose: 400.0 mg/kg/injection, schedule: Q04DX003 (ip), vehicle: saline) 108 % of control.
Consider `Cc1cc2c(cc1C)-c1c(oc3cc(C)c(C)cc13)-c1ccccc1C(=O)O2`, for which the T/C is, setting by setting: under setting [5], 94 % of control; under setting [6], 97 % of control; (dose: 200.0 mg/kg/injection, schedule: Q01DX009 (ip), vehicle: saline with Tween-80) 97 % of control.
As to `COc1cc(CC2NCCc3cc(O)c(O)cc32)cc(OC)c1OC` (stereo unspecified), the T/C runs as follows: (dose: 25.0 mg/kg/injection, schedule: Q01DX009 (ip), vehicle: Klucel (hydroxypropylcellulose) (HPC)) 103 % of control; under setting [7], 100 % of control and 113 % of control; under setting [8], 106 % of control and 111 % of control; under setting [9], 108 % of control.
On to `COc1cc(-c2cc(O)c(-c3ccc4ccccc4n3)c(=O)[nH]2)cc(OC)c1OC`, for which the T/C is 102 % of control (dose: 0.93 mg/kg/injection, schedule: Q01DX005 (ip), vehicle: saline with Tween-80); 98 % of control (dose: 1.88 mg/kg/injection, schedule: Q01DX005 (ip), vehicle: saline with Tween-80); 96 % of control (dose: 3.75 mg/kg/injection, schedule: Q01DX005 (ip), vehicle: saline with Tween-80); 87 % of control under setting [3]; 90 % of control under setting [4].
Turning to `O=C(O)C(Cc1ccccc1)NP(=S)(c1ccccc1)c1ccccc1` (stereo unspecified), the T/C under setting [7] is 110 % of control, the T/C under setting [8] is 97 % of control and the T/C under setting [9] was 106 % of control.
As to `CC(=O)Oc1c(C)c(C)c(OC(C)=O)c(OC(C)=O)c1C`, the T/C by setting is: (dose: 100.0 mg/kg/injection, schedule: Q04DX002 (ip), vehicle: Klucel (hydroxypropylcellulose) (HPC)) 93 % of control; (dose: 200.0 mg/kg/injection, schedule: Q04DX002 (ip), vehicle: Klucel (hydroxypropylcellulose) (HPC)) 96 % of control; (dose: 400.0 mg/kg/injection, schedule: Q04DX002 (ip), vehicle: Klucel (hydroxypropylcellulose) (HPC)) 90 % of control.
As to `CNCc1cccc2ccnc(C)c12`, the T/C (dose: 100.0 mg/kg/injection, schedule: Q01DX001 (ip), vehicle: saline with Tween-80) was 100 % of control; the T/C (dose: 200.0 mg/kg/injection, schedule: Q01DX001 (ip), vehicle: saline with Tween-80) was 99 % of control; the T/C (dose: 400.0 mg/kg/injection, schedule: Q01DX001 (ip), vehicle: saline with Tween-80) is 96 % of control.
As to `Clc1cccc(Cl)c1C(Cl)Cl`, the T/C is 95 % of control under setting [10]; 109 % of control under setting [11]; 100 % of control (dose: 400.0 mg/kg/injection, schedule: Q04DX003 (ip), vehicle: saline with Tween-80).
As to `COc1ccc(/C=C/c2nc(Nc3ccc(OC)cc3)c3ccccc3n2)cc1`, the T/C is, setting by setting: (dose: 50.0 mg/kg/injection, schedule: Q01DX009 (ip), vehicle: acetone) 98 % of control; (dose: 100.0 mg/kg/injection, schedule: Q01DX009 (ip), vehicle: acetone) 91 % of control; (dose: 200.0 mg/kg/injection, schedule: Q01DX009 (ip), vehicle: acetone) 99 % of control.
For the molecule `CCCN1C(C)=C(C#N)C2(C(=O)Nc3ccccc32)C(C#N)=C1C`, the T/C by setting is: (dose: 50.0 mg/kg/injection, schedule: Q01DX005 (ip), vehicle: Klucel (hydroxypropylcellulose) (HPC)) 99 % of control; (dose: 100.0 mg/kg/injection, schedule: Q01DX005 (ip), vehicle: Klucel (hydroxypropylcellulose) (HPC)) 102 % of control; (dose: 200.0 mg/kg/injection, schedule: Q01DX005 (ip), vehicle: Klucel (hydroxypropylcellulose) (HPC)) 102 % of control.
Take `CCC(CNc1cc(OC)cc2cccnc12)NC1CCCCC1` (stereo unspecified): the T/C reads like this: (dose: 12.5 mg/kg/injection, schedule: Q01DX005 (ip), vehicle: saline) 102 % of control; (dose: 25.0 mg/kg/injection, schedule: Q01DX005 (ip), vehicle: saline) 99 % of control; under setting [12], 100 % of control and 102 % of control.
Consider `N#CC1CCN(Cc2ccccc2)C(C#N)C1` (stereo unspecified), for which the T/C was 105 % of control (dose: 15.0 mg/kg/injection, schedule: Q01DX005 (ip), vehicle: Klucel (hydroxypropylcellulose) (HPC)); 106 % of control (dose: 30.0 mg/kg/injection, schedule: Q01DX005 (ip), vehicle: Klucel (hydroxypropylcellulose) (HPC)); 102 % of control and 106 % of control (dose: 60.0 mg/kg/injection, schedule: Q01DX005 (ip), vehicle: Klucel (hydroxypropylcellulose) (HPC)).
Consider `[Br][Pt+2][Br].[NH-]C(c1ccccc1)C([NH-])c1ccccc1` (stereo unspecified), for which the T/C (dose: 12.5 mg/kg/injection, schedule: Q04DX002 (ip), vehicle: saline with Tween-80) is 112 % of control.
Consider `CCOC(=O)C(C)(C)CN(CCCN(C)C)CC(C)(C)C(=O)OCC`, for which the T/C by setting is: under setting [5], 105 % of control; under setting [6], 115 % of control.
Take `CCCCCCNC(=O)C1C(=O)N(CCCCCC)C(=O)/C1=N\N=C(N)N` (stereo unspecified): the T/C is 109 % of control under setting [2] and 109 % of control under setting [3].
Consider `CCN(CC)c1ccc(/C=C2\CCc3ccccc3C2=O)cc1`, for which the T/C is 108 % of control under setting [7], 111 % of control under setting [8] and 106 % of control under setting [9].
`CCOC(=O)C(Cc1ccc(N(CCCl)CCCl)cc1)NC(=O)C(Cc1ccccc1)NC=O` (stereo unspecified): the T/C (dose: 25.0 mg/kg/injection, schedule: Q01DX009 (ip), vehicle: saline with Tween-80) is 172 % of control; the T/C under setting [5] is 86 % of control; the T/C under setting [10] was 166 % of control; the T/C under setting [11] was 220 % of control.
Take `COC(=O)/C=C/c1ccc[n+]([O-])c1`: the T/C reads like this: under setting [12], 99 % of control; (dose: 100.0 mg/kg/injection, schedule: Q01DX005 (ip), vehicle: saline) 98 % of control; (dose: 200.0 mg/kg/injection, schedule: Q01DX005 (ip), vehicle: saline) 99 % of control.
Turning to `CO[n+]1ccccc1Cc1ccccc1`, the T/C was 118 % of control (dose: 6.25 mg/kg/injection, schedule: Q01DX009 (ip), vehicle: saline); 112 % of control and 119 % of control (dose: 12.5 mg/kg/injection, schedule: Q01DX009 (ip), vehicle: saline); 111 % of control (dose: 25.0 mg/kg/injection, schedule: Q01DX009 (ip), vehicle: saline); 119 % of control under setting [1].
For the molecule `O=C(O)c1ccc(O)c(O)c1.[NH2-].[NH2-].[NH2-].[NH2-].[Ru+4]`, the T/C reads like this: (dose: 87.5 mg/kg/injection, schedule: Q04DX002 (ip), vehicle: saline) 104 % of control; (dose: 175.0 mg/kg/injection, schedule: Q04DX002 (ip), vehicle: saline) 108 % of control; (dose: 350.0 mg/kg/injection, schedule: Q04DX002 (ip), vehicle: saline) 105 % of control.
